This note sets out measurements from PubChem BioAssay (NCI).

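Results reflect a 48-hour exposure of cells in 96-well plates to compound at five concentrations. Here, GI50 denotes the concentration required for 50% inhibition of growth. TGI denotes the concentration required for complete inhibition of growth.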

Holding throughout (assay): growth of human tumour cells (NCI), 48 h
In assay [1] the test system is CAKI-1 renal.
Assay [2] deals with HOP-92 NSCLC.
The subject of assay [3] is HT29 colon.
Assay [4] concerns MALME-3M melanoma.
Assay [5] has as its system NCI-H226 lung.
Assay [6] relates to SK-MEL-5 melanoma.
The test system of assay [7] is SNB-75 CNS.
Assay [8] concerns T-47D breast.
Assay [9] concerns TK-10 renal.
In assay [10] the test system is UACC-62 melanoma.

`CC1=NN=C(C)C1N=Nc1ccc2nc(C)[nH]c2c1`: the TGI in assay [1] is over 44.7 µM; in [2] it was 65.4 µM; in assay [3] it was over 100 µM; in assay [4], over 50.5 µM; in [5] it was 34.8 µM; in assay [6], over 63.8 µM. In addition, the TGI was 64.4 µM in assay [7], 54.8 µM in assay [8], over 100 µM in assay [9] and over 79.8 µM in [10].
`CCOC(=O)C(NC(=O)OCc1ccccc1)C(=O)O` (centres undefined): the TGI in assay [1], in assay [2], in assay [3], in [4], in assay [5] and in assay [6] was over 100 µM in each case. Moreover, the TGI in assay [7], in [8], in assay [9] and in assay [10] was over 100 µM throughout.
As for `O=C1CN(c2ccccc2)Cc2nc(Cl)ccc2N1`, the TGI in assay [1], in [2], in assay [3], in assay [4], in assay [5] and in [6] was over 100 µM in each case. Moreover, the TGI in [7], in assay [8], in [9] and in assay [10] was over 100 µM each time.
For the compound `O=C(O)c1nc2ccccc2nc1Nc1ccc(Cl)c(Cl)c1`, the TGI in assay [1] is 77.9 µM; in assay [2] it was 59 µM; in assay [4] it was over 100 µM; in assay [5], over 100 µM; in assay [6] it was 47 µM; in [7] it was over 100 µM. The results for the TGI in assay [8] and in [9] were 72.1 µM and over 100 µM, respectively.
As to `Brc1ccc(C2C3CSc4ccccc4C3=NN2c2ccccc2)cc1` (centres undefined), the TGI in [1], in assay [2], in assay [3], in assay [4], in assay [5] and in assay [6] was over 100 µM throughout. For the same compound, the TGI in assay [7] was over 100 µM; in assay [8], 86.3 µM; in assay [9], over 100 µM; in assay [10], over 100 µM.
As to `CC(CSC(=N)N)C(N)=O` (centres undefined), the TGI in assay [1], in [2], in [3], in assay [4], in assay [5] and in assay [6] was over 100 µM throughout. The TGI in [7], in assay [8], in assay [9] and in assay [10] was over 100 µM each time.
In the case of `CC1=NN(c2nc(N)nc(NS(=O)(=O)c3cc(C)c(Cl)cc3S)n2)C(C)(C)C1`, the TGI in assay [1], in assay [2], in assay [3], in assay [4], in assay [5] and in assay [6] was over 10 µM throughout. For the same compound, the TGI in [7], in [8] and in assay [9] was over 10 µM throughout.
`CS(=O)(=O)N1CC(CCl)c2ccc(NO)cc21` (centres undefined): the TGI was 27.6 µM in assay [1]; 27.9 µM in assay [2]; 29.4 µM in [3]; 37.7 µM in [4]; over 78 µM in assay [5]; 28.2 µM in [6]. In addition, the TGI in assay [7] turned out to be 32.3 µM; in assay [8] it was 60.1 µM; in assay [9], 51.1 µM; in assay [10] it was 26.5 µM.
Take `C1CNOCCCONCCCNOCCCONC1`: the TGI was over 100 µM in assay [1]; 82.1 µM in [2]; over 100 µM in assay [3]; 99.2 µM in [4]; over 100 µM in [5]; over 100 µM in [6]. Further, the TGI in assay [7] was over 100 µM; in assay [8], 44.4 µM; in assay [9], 84.5 µM; in [10] it was over 100 µM.
Consider `O=C1N/C(=N\N=C\c2ccccc2)C(c2ccccc2)O1` (centres undefined), for which the TGI in [1], in assay [2], in [3], in assay [4], in assay [5] and in assay [6] was over 100 µM in each case. The TGI in assay [7] is 0.0124 µM; in assay [8], over 100 µM; in assay [9], over 100 µM; in assay [10], over 100 µM.
On to `FC(F)(F)c1ccc(C2ON=C(c3ccccc3)N2C23CC4CC(CC(C4)C2)C3)cc1` (centres undefined), for which the TGI in assay [1], in assay [2], in assay [3], in [4], in [5] and in assay [6] was over 10 µM throughout. The TGI in assay [7], in assay [8], in [9] and in assay [10] was over 10 µM throughout.
`O=C/C(=C1/C=Cc2cc([N+](=O)[O-])ccc2S1)c1ccccc1`: the TGI in [1], in assay [2], in [3], in assay [4], in assay [5] and in [6] was over 100 µM in each case. In addition, the TGI in assay [7], in assay [8] and in assay [9] was over 100 µM throughout.
With `O=c1[nH]/c(=C/c2ccc3c(c2)OCO3)c(=O)[nH]/c1=C/c1ccc2c(c1)OCO2`, the TGI in assay [1], in assay [2], in assay [3], in [4], in assay [5] and in assay [6] was over 10 µM in each case. Moreover, the TGI in assay [7], in assay [8], in assay [9] and in assay [10] was over 10 µM throughout.
With `O=C1CCN2c3ccccc3[C@H]3Cc4cccc(c4[C@@H]2C3)CCO1`, the TGI in [1] is over 100 µM; in assay [2] it was over 100 µM; in [3], over 100 µM; in assay [4] it was over 100 µM; in assay [5], over 100 µM; in [6] it was 54.3 µM. The TGI in assay [7] is 96.7 µM; in assay [8], over 100 µM; in [9], over 100 µM; in assay [10], over 100 µM.
As for `O=C1Oc2ccccc2C1C/C(=N\Nc1ccccc1)c1ccccc1O` (centres undefined), the TGI in assay [1] is over 100 µM; in [2], 78.8 µM; in assay [3], 78.5 µM; in assay [4] it was over 100 µM; in [5], over 100 µM; in assay [6], over 100 µM. Further, the TGI in assay [7] was over 100 µM; in [8], 81.8 µM; in assay [9], over 100 µM; in [10], over 100 µM.
In the case of `CCC(NC(C)c1ccccc1)C(=O)c1ccc(OCc2ccccc2)c(OCc2ccccc2)c1` (centres undefined), the TGI in assay [1], in assay [2], in assay [3], in assay [4], in assay [5] and in [6] was over 100 µM each time. For the same compound, the TGI in assay [7], in assay [8], in [9] and in [10] was over 100 µM throughout.
`CO/C(N)=C(\C#N)N=Cc1ccc2ccccc2c1`: the TGI in assay [1], in assay [2], in assay [3], in assay [4], in assay [5] and in assay [6] was over 100 µM in each case. Moreover, the TGI in assay [7], in assay [8], in assay [9] and in assay [10] was over 100 µM each time.
As to `COc1ccc(/C=c2\c(=O)[nH]c3nc4ccccc4c(=O)n23)cc1`, the TGI in [1], in assay [2], in assay [3], in assay [4], in [5] and in assay [6] was over 100 µM throughout. For the same compound, the TGI in [7], in assay [8], in [9] and in assay [10] was over 100 µM throughout.
In the case of `O[C@]12C=C(c3nccc4c3[nH]c3ccccc34)[C@@H]3CCN(CCCC/C=C\CC1)C[C@@]31CC3/C=C\CCCCN3[C@H]12` (some centres undefined), the TGI is 6.17 µM in assay [1]; 0.741 µM in assay [2]; 1.36 µM in assay [3]; 1.71 µM in [4]; 5.2 µM in assay [5]; 0.34 µM in assay [6]. The TGI in assay [7] was 2.88 µM; in [8], 4.67 µM; in assay [9], 1.95 µM; in assay [10], 0.159 µM.
Consider `CN(C)c1ccc(/C=C/C(=O)c2ccc(O)cc2)cc1`, for which the TGI in [1] was over 100 µM; in assay [2], over 100 µM; in [3], 29.9 µM; in [4], 51 µM; in assay [5], over 100 µM; in [6], 23.3 µM. For the same compound, the TGI in assay [7] is over 42.7 µM; in assay [8], 57.6 µM; in assay [9], over 100 µM; in assay [10] it was 19.3 µM.
As for `COc1ccc(C2c3cc4c(cc3OC(NNc3ccccc3)C2C)OCO4)cc1` (centres undefined), the TGI in assay [1] is over 100 µM; in [2], 67.9 µM; in assay [3] it was 51.7 µM; in assay [4] it was 52.9 µM; in assay [5], over 100 µM; in [6] it was 99.4 µM. For the same compound, the TGI is over 100 µM in [7], over 100 µM in assay [8], over 100 µM in assay [9] and 59.5 µM in [10].
As to `Clc1ccc(Cl)c(N=Nc2cc3c4c(c2)CCN4CCC3)c1`, the TGI in assay [1], in assay [2], in assay [3], in assay [4], in assay [5] and in [6] was over 10 µM throughout. Moreover, the TGI in assay [7], in assay [8], in assay [9] and in assay [10] was over 10 µM throughout.
As for `COC1(CC[C@@H](C)COC2OC(CO)C(O)C(O)C2O)O[C@H]2C[C@H]3[C@@H]4CC=C5C[C@@H](OC6OC(CO)C(OC7OC(C)C(O)C(O)C7O)C(O)C6OC6OC(C)C(O)C(O)C6O)CC[C@]5(C)[C@H]4CC[C@]3(C)[C@H]2[C@@H]1C` (some centres undefined), the GI50 in assay [1] was 1.25 µM; in assay [2], 2.32 µM; in assay [3], 1.89 µM; in [4] it was 1.96 µM; in assay [6], 3.51 µM; in assay [8] it was 4.08 µM. Also, the results for the GI50 in assay [9] and in assay [10] were 8.04 µM and 2.31 µM, respectively. The TGI was found to be 2.61 µM in assay [1]; 7.97 µM in assay [2]; 4.3 µM in [3]; 5.09 µM in assay [4]; 15.3 µM in assay [5]; 12.2 µM in assay [6]. Besides, the TGI in assay [7] came to 3.37 µM; in [8], 10.9 µM; in assay [9] it was 23.1 µM; in assay [10], 16 µM.
For `C[C@@H](CC(O)C(O)C(C)(C)O)C1CCC23CC12CCC1[C@@]2(C)CCC(O)C(C)(C)C2CC(OC2OC(CO)C(O)C(O)C2O)[C@]13C` (some centres undefined), the TGI in assay [1], in assay [2], in assay [3], in assay [4], in assay [5] and in assay [6] was over 10 µM throughout. Further, the TGI in assay [7], in [8], in [9] and in [10] was over 10 µM in each case.
Take `O=C1N=C2SC=C(NC(=S)Nc3ccccc3)N2NC12c1ccccc1-c1ccccc12`: the TGI in [1], in [2], in [3], in assay [4], in [5] and in assay [6] was over 10 µM each time. For the same compound, the TGI in [7], in [8], in [9] and in [10] was over 10 µM in each case.
